From PubChem BioAssay AID720615 (Broad Institute, 2013)
Records with an inconclusive call do not appear. Activity calls are given as the source filed them. The rule behind the calls is not given here.

Legend:
[1] = tested on: U251 HRAS cells, caspase 3/7 luminescence, apoptosis; test: caspase 3/7 activation in U251 cells, mechanism study for HRAS target identification, cell-based, luminescence, several timepoints, dry powder (AID 720615)
[2] = as above; conditions: U251 HRAS cells, caspase 3/7 luminescence, apoptosis; at 35 µM (top of the series)

Compound | AC40 [1] | AC40 ([1]; measured here: timepoint 1 caspase activation) | AC40 ([1]; measured here: timepoint 2 caspase activation) | AC40 ([1]; measured here: timepoint 3 caspase activation) | caspase 3/7 activation [2]
COc1ccc(N(C(=O)CCl)C(C(=O)NCCc2ccccc2)c2cccs2)cc1Cl (stereo not given) | 5.7 µM | 14.7 µM | 1.45 µM | 0.948 µM | –
CCC(=O)N(c1ccc(OC)c(Cl)c1)C(C(=O)NCCc1ccccc1)c1cccs1 (stereo not given) | – | – | – | – | 4.74% (inactive)
